According to US20090088463A1, “Pyrazoles Useful in the Treatment of Inflammation” (priority 2005, published 2009):

Biological target: T1, purified human 15-lipoxygenase (Homo sapiens, UniProt P16050)
T1 sequence (P16050 1-662): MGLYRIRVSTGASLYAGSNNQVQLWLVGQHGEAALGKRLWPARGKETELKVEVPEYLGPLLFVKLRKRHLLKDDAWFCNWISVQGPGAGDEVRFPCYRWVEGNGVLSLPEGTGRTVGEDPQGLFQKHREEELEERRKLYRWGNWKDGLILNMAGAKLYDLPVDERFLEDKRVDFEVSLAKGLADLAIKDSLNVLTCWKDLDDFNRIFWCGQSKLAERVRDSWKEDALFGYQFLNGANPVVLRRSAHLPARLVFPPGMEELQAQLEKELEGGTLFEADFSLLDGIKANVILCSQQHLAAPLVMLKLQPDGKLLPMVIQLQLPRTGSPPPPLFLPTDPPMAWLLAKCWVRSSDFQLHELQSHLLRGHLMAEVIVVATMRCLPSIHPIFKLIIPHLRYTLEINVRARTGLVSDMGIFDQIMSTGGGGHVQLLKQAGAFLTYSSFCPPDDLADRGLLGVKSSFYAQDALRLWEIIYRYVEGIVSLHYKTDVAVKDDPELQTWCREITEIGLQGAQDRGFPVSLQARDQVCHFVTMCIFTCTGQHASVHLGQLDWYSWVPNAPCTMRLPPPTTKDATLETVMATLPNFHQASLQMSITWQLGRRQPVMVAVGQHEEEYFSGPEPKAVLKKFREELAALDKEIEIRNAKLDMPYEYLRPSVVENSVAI
Assay: 15-lipoxygenase inhibition assay (arachidonic acid oxidation, HPLC readout)
Assay type: biochemical
Settings: arachidonic acid substrate, room temperature
Procedure: The assay employed takes advantage of the ability of lipoxygenases to oxidize polyunsaturated fatty acids, containing a 1,4-cis-pentadiene configuration, to their corresponding hydroperoxy or hydroxyl derivatives. In this particular assay, the lipoxygenase was a purified human 15-lipoxygenase and the fatty acid was arachidonic acid. The assay is performed at room temperature (20-22° C.) and the following are added to each well in a 96-well microtiter plate:
a) 35 μL phosphate buffered saline (PBS) (pH 7.4); b) inhibitor (i.e. compound) or vehicle (0.5 μl DMSO); c) 10 μL of a 10× concentrated solution of 15-lipoxygenase in PBS. The plates are incubated for 5 minutes at room temperature; d) 5 μl of 0.125 mM arachidonic acid in PBS. The plate is then incubated for 10 minutes at room temperature; e) the enzymatic reaction is terminated by the addition of 100 μl methanol; and
f) the amount of 15-hydroperoxy-eicosatetraenoic acid or 15-hydroxy-eicosatetraenoic acid is measured by reverse phase HPLC.

Row | SMILES | IC50 [nM]
1 | Cc1cc(Cl)ccc1NC(=O)c1cc[nH]n1 [Example 9, N-(4-Chloro-2-methylphenyl)pyrazole-3-carboxamide] | 750
2 | O=C(Nc1ccc(F)c(F)c1F)c1cc[nH]n1 [Example 7, N-(2,3,4-Trifluorophenyl)pyrazole-3-carboxamide] | 1800
3 | Cc1ccc(NC(=O)c2cc[nH]n2)c(C)c1 [Example 14, N-(2,4-Dimethylphenyl)pyrazole-3-carboxamide] | 840

Continued by falling IC50, values first:

Row | IC50 [nM] | SMILES
4 | 1100 | O=C(Nc1cc(Cl)ccc1Cl)c1cc[nH]n1 [Example 13, N-(2,5-Dichlorophenyl)pyrazole-3-carboxamide]
5 | 160 | O=C(Nc1ccc(OC(F)(F)F)cc1Br)c1cc[nH]n1 [Example 2, N-(2-Bromo-4-trifluoromethoxyphenyl)pyrazole-3-carboxamide]
6 | 140 | O=C(Nc1ccc(Br)cc1OC(F)(F)F)c1cc[nH]n1 [Example 15, N-(4-Bromo-2-trifluoromethoxyphenyl)pyrazole-3-carboxamide]
